The target in assay [1] is D(2) dopamine receptor (Homo sapiens, UniProt P14416).
For assay [2], the target named is D(1A) dopamine receptor (Rattus norvegicus, UniProt P18901).
Assay [3] concerns the target D(2) dopamine receptor (Rattus norvegicus, UniProt P61169).

Consider 18 molecules from BindingDB's records for doi:10.1016/j.bmc.2003.11.015 (Bristol-Myers Squibb Pharmaceutical Research Institute, 2004).

One may read the Ki as a measure of affinity in units of concentration, obtained from inhibition or displacement. A higher Ki goes with a looser hold on the target.

Structures can show the parent of a compound that is named as a salt.

Chain of D(2) dopamine receptor (Homo sapiens, UniProt P14416) (P14416 whole entry): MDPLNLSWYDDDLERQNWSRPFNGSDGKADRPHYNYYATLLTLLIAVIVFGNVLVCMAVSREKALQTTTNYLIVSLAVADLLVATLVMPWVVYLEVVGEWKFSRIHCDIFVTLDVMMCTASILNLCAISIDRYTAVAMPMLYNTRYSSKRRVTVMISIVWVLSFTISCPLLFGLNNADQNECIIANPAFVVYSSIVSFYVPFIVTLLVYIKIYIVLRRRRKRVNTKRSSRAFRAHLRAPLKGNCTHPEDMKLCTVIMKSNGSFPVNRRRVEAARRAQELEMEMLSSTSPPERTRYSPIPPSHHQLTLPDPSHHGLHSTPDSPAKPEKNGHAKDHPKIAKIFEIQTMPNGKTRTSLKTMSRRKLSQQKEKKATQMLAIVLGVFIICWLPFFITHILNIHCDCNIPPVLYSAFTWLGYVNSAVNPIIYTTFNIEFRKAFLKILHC
Chain of D(2) dopamine receptor (Rattus norvegicus, UniProt P61169) (P61169 whole entry): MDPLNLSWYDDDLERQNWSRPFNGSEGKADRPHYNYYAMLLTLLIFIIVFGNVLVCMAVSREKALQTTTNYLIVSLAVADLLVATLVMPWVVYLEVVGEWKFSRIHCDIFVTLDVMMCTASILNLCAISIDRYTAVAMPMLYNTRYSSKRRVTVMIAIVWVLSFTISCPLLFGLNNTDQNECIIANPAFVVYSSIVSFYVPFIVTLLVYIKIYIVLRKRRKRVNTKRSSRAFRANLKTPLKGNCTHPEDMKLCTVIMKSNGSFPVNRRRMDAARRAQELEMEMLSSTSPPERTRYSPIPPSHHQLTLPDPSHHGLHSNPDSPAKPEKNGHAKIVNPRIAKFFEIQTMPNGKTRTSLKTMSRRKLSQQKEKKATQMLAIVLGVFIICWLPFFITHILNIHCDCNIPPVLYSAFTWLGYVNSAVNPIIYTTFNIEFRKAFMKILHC
Chain of D(1A) dopamine receptor (P18901 whole entry): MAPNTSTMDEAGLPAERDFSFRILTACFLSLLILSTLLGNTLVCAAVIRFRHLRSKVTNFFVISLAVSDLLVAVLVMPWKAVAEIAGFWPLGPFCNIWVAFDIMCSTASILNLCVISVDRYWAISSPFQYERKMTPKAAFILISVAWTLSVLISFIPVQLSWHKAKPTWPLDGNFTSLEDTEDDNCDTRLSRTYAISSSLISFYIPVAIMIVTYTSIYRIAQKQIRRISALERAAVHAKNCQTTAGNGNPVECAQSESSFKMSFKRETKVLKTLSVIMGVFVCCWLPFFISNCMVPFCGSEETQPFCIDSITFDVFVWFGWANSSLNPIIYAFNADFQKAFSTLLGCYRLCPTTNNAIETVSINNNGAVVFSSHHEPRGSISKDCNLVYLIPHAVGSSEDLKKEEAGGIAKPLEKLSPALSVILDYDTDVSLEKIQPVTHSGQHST

For `CC1NC[C@H]2c3ccc(O)c(O)c3Cc3cccc1c32` (mixture of isomers) [(+/-)-3-methyldinapsoline hydrobromide], the Ki in assay [1] worked out at 40 nM; in assay [2], 2000 nM.

Consider `CCCCC1NC[C@H]2c3ccc(O)c(O)c3Cc3cccc1c32` (mixture of isomers) [(+/-)-3-n-butyldinapsoline hydrobromide], for which the Ki in assay [2] came to 299 nM.

In the case of `CCC1c2cccc3c2[C@@H](CNC3)c2ccc(O)c(O)c21` (mixture of isomers) [(+/-)-7-ethyldinapsoline hydrobromide], the Ki in assay [3] worked out at 440 nM; in assay [2], 430 nM.

In the case of `COC(=O)CC1c2cccc3c2[C@@H](CNC3)c2ccc(O)c(O)c21` (mixture of isomers) [(+/-)-7-methoxycarbonylmethyldinapsoline], the Ki in assay [3] came to 990 nM; in assay [2] it was 2400 nM.

With `CC1c2cccc3c2[C@@H](CNC3)c2ccc(O)c(O)c21` (mixture of isomers) [(+/-)-7-methyldinapsoline hydrobromide], the inhibitory constant (Ki) in assay [3] stood at 160 nM; in assay [2], 139 nM.

On to `CC1c2cccc3c2[C@@H](CN1C)c1ccc(O)c(O)c1C3` (mixture of isomers) [NSC_0], for which the inhibitory constant (Ki) in assay [1] was over 10000 nM; in assay [2] it was 9500 nM.

As for `Oc1ccc2c(c1O)Cc1cccc3c1[C@H]2CNC3C(F)(F)C(F)(F)C(F)(F)C(F)(F)F` (mixture of isomers) [NSC_0], the Ki in assay [3] is 78 nM; in assay [2], 340 nM.

On to `CCCN1Cc2cccc3c2[C@@H](C1)c1ccc(O)c(O)c1C3` (racemic) [(+/-)-2-propyldinapsoline hydrobromide], for which the Ki in assay [1] stood at 15 nM; in assay [2], 2000 nM.

As to `Oc1cc(Cl)c2c(c1O)Cc1cccc3c1[C@H]2CNC3` (racemic) [CAS_0], the Ki in assay [3] is 16 nM; in assay [2], 1500 nM.

Consider `CC1(C)c2cccc3c2[C@@H](CNC3)c2ccc(O)c(O)c21` (racemic) [NSC_0], for which the Ki in assay [3] is 390 nM; in assay [2], 870 nM.

As to `CN1Cc2cccc3c2[C@@H](C1)c1ccc(O)c(O)c1C3` (racemic) [NSC_0], the Ki in assay [3] was found to be 70 nM; in assay [2], 382 nM.

Turning to `O=[N+]([O-])c1cc(O)c(O)c2c1[C@@H]1CNCc3cccc(c31)C2` (racemic) [NSC_0], the Ki was 1100 nM in assay [3] and over 10000 nM in assay [2].

Regarding `Oc1ccc2c(c1O)Sc1cccc3c1C2CNC3` (centres undefined) [1,2,3,11b-Tetrahydro[1]benzothiopyrano[4,3,2-de]isoquinolin-8,9-diol], the results for the Ki in assay [3] and in assay [2] were 34.5 nM and 536 nM, respectively.

With `Oc1ccc2c(c1O)Cc1ccc(O)c3c1[C@H]2CNC3` [4-hydroxydinapsoline hydrobromide], the Ki in assay [3] is 15 nM; in assay [2], 72 nM.

As to `CCc1ccc2c3c1Cc1c(ccc(O)c1O)[C@@H]3CNC2` [6-ethyldinapsoline hydrobromide], the Ki in assay [1] came to 27 nM; in assay [2], 14 nM.

For `Oc1ccc2c(c1O)Cc1c(F)ccc3c1C2CNC3` (centres undefined) [NSC_0], the Ki worked out at 170 nM in assay [3] and 3000 nM in assay [2].

`Oc1ccc2c(c1O)Cc1c(F)ccc3c1[C@H]2CNC3` [NSC_0]: the Ki in assay [3] stood at 7 nM.

`Oc1ccc2c(c1O)Cc1ccc(F)c3c1[C@H]2CNC3` [NSC_0]: the Ki turned out to be 28 nM in assay [3] and 69 nM in assay [2].
